The nature of one data set: in vivo. The conditions noted are these: mouse. The protocol:
All formulations were given by gavage with a final volume of 200 µL. At different intervals (0.5, 1, 2, 4, 8, and 24 hours), animals were subjected to anesthesia with a mixture of xylazine (10 mg/kg) and ketamine (100 mg/kg). Blood was collected by cardiac puncture, plasma was separated by centrifugation, RBCs were washed three times in saline, and plasma and RBC were stored at −20°C. After the animal was exsanguinated, the liver, lungs, and spleen were collected and frozen in liquid nitrogen until processed for primaquine quantification.
The extraction procedure was based on Carmo et al. ([22]) and Joshi and Devarajan ([23]). Briefly, 100 µL or 100 mg of the sample was transferred to a 1.5 mL microtube. Then, 100 µL of 2% acetic acid-acidified acetonitrile and 100 µL of ultrapure water were added. Next, the samples were homogenized for 1 minute using a vortex, and 50 µL of 12.5% zinc sulfate solution was added. The samples were homogenized again for 1 minute and left to stand for 20 minutes to ensure complete protein precipitation. After this period, the samples were centrifuged at 7,500 rpm for 15 minutes at room temperature. Finally, the supernatant was collected, and 20 µL was injected into the liquid chromatograph. This process was repeated to construct the eight-point calibration curves (0.39–50 µg/mL).
The primaquine concentrations in plasma, liver, lung, and spleen samples from mice treated with free primaquine were determined using high-performance liquid chromatography with a UV detector (HPLC-UV). Method validation followed orientations of the Guidance for Bioanalytical Method Validation from the Food and Drug Administration. The method was developed using a Waters liquid chromatography system with an Alliance e2695 Separation Module, quaternary pump, autosampler, degasser, column heater, and a dual channel UV–Vis detector (Milford, USA). The Empower 3 software was used for system control, peak integration, and data analysis. The separation was performed using an XBridge C18 reverse-phase column (150 × 4.6 mm, 5 µm) and an XBridge C18 reverse-phase pre-column (20 × 4.6 mm, 5 µm). For elution and identification of the primaquine, the mobile phase (MP) consisted of (A) potassium phosphate buffer (0.02 mol/L, pH = 3) and (Bi) acetonitrile. […] The flow rate of the MP was set at 1.0 mL/min, the column oven temperature was maintained at 35°C, and the UV detector was set at 266 nm. An injection volume of 20 µL was used, and the total run time was 13 minutes.
The physicochemical analyses of the nanoparticles were performed in triplicate and are expressed as the mean value ± SD. Statistical significance tests were applied through mixed-model analysis of variance, using Prism GraphPad Software. […] Non-compartmental pharmacokinetic analysis was conducted using PK Solutions 2.0 (Summit Research Services, Ashland, USA). The area under the concentration-time curve was calculated using the trapezoidal method (AUC0-t) from time zero to the last data point and extrapolated to infinity (AUC0-∞). The maximum plasma concentration (Cmax) and the time taken to reach Cmax (Tmax) were obtained from the experimental data. The elimination rate constant (K) was determined from the slope of the regression line, allowing the calculation of the elimination half-life (t1/2β) using the formula 0.693 /K ([24]). All data were presented as mean ± SD.

On the set-up of data set [1]: method as in PMID 16140485. The conditions noted are these: 1 hour after intravenous administration in mice; cited from earlier work.
On the set-up of data set [2]: method as in PMID 16968913, PMID 30379233, PMID 35709685. To be noted: human treatment, clinical dose; cited from earlier work.

In general, Tmax refers to the time at which the peak concentration occurs. For orientation: Cmax means the maximum level reached in the sampled fluid or tissue. Consider `COc1cc(NC(C)CCCN)c2ncccc2c1` (stereo not shown) [Pq, primaquine diphosphate], for which, in the data set “in vivo” (Swiss Webster, po, 10 mg/kg), the Tmax is 30 min and the “liver/plasma ratio for the volume of distribution” value is recorded as 0.1. Further, the “primaquine concentrations in the liver, variation among animals” value in the data set “in vivo” (Swiss Webster, po, 10 mg/kg, 30 minutes) is 3.5-110 µg of drug per 100 mg of tissue. This compound also displayed a Cmax in “in vivo” (Swiss Webster, po, 10 mg/kg, primaquine concentrations in plasma (Cmax), variation among animals) of 400 to 2000 ng/mL. Further, in the data set “in vivo”, the “Cmax of primaquine in the liver relative to the galactose-based nanoformulations” value is recorded as “about twice as much”. In addition, the “uptake of the drug (recovery) in the liver” value in data set [1] was 20%. For the same compound, the Cmax in plasma result in data set [2] is “around 0.1 µg/mL”.

(Values after PMC11064505, “A nanochitosan-D-galactose formulation increases the accumulation of primaquine in the liver” (Antimicrobial Agents and Chemotherapy, 2024).)
